Tested on: NCI-H1876 complex spheroid growth, % test/control
Test: Anticancer human tumor NCI-H1876 cell line growth inhibition [Asc];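 note: compound exposure lasted 7 days starting three days after seeding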;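 for viability, T/C: 100% = DMSO vehicle control wells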
Conditions: for IC50: curve of first compound; for viability, T/C: stronger effect = lower value
Method in brief: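 Tumor cells were grown as complex spheroids with human endothelial cells (HUVEC) and human mesenchymal stem cells as stroma. Agents were tested alone and in combination, in half-log steps down from the clinical Cmax, or from 10 microM where Cmax was unknown.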

[1] = second compound 0.00316 µM, first compound 0.00316 µM
[2] = second compound 0.00316 µM, first compound 0.01 µM
[3] = second compound 0.00316 µM, first compound 0.0316 µM
[4] = second compound 0.00316 µM, first compound 0.1 µM
[5] = second compound 0.01 µM, first compound 0.00316 µM
[6] = second compound 0.01 µM, first compound 0.01 µM
[7] = second compound 0.01 µM, first compound 0.0316 µM
[8] = second compound 0.01 µM, first compound 0.1 µM
[9] = second compound 0.0316 µM, first compound 0.00316 µM
[10] = second compound 0.0316 µM, first compound 0.01 µM
[11] = second compound 0.0316 µM, first compound 0.0316 µM
[12] = second compound 0.0316 µM, first compound 0.1 µM
[13] = second compound 0.1 µM, first compound 0.00316 µM
[14] = second compound 0.1 µM, first compound 0.01 µM
[15] = second compound 0.1 µM, first compound 0.0316 µM
[16] = second compound 0.1 µM, first compound 0.1 µM
[17] = second compound 0.316 µM, first compound 0.00316 µM
[18] = second compound 0.316 µM, first compound 0.01 µM
[19] = second compound 0.316 µM, first compound 0.0316 µM
[20] = second compound 0.316 µM, first compound 0.1 µM
[21] = second compound 1 µM, first compound 0.00316 µM
[22] = second compound 1 µM, first compound 0.01 µM
[23] = second compound 1 µM, first compound 0.0316 µM
[24] = second compound 1 µM, first compound 0.1 µM

Compound `COc1c(OCCCN2CCOCC2)ccc2c3n(c(=NC(=O)c4cnc(N)nc4)nc12)CCN3` + CNC(C)C(=O)NC1CN(S(=O)(=O)c2cccc(S(=O)(=O)N3CCC4CCC(C(=O)NC(c5ccccc5)c5ccccc5)N4C(=O)C(NC(=O)C(C)NC)C3)c2)CCC2CCC(C(=O)NC(c3ccccc3)c3ccccc3)N2C1=O has an IC50 (second compound 0.00316 µM) greater than 1 µM, an IC50 (second compound 0.01 µM) of 0.734 µM and an IC50 (second compound 0.0316 µM) of 0.789 µM. For the same compound, the IC50 (second compound 0.1 µM) was 0.701 µM, the IC50 (second compound 0.316 µM) was greater than 1 µM and the IC50 (second compound 1 µM) was 0.901 µM. It also gave a viability, T/C [1] of 106%, a viability, T/C [2] of 107% and a viability, T/C [3] of 103%. The viability, T/C [4] was 81.5%, the viability, T/C (second compound 0.00316 µM, first compound 0.316 µM) was 64.5% and the viability, T/C (second compound 0.00316 µM, first compound 1 µM) was 49.2%. For the same compound, the viability, T/C [5] was 105%, the viability, T/C [6] was 106% and the viability, T/C [7] was 107%. For the same compound, the viability, T/C [8] was 82.1%, the viability, T/C (second compound 0.01 µM, first compound 0.316 µM) was 63.3% and the viability, T/C (second compound 0.01 µM, first compound 1 µM) was 45%. For the same compound, the viability, T/C [9] was 100%, the viability, T/C [10] was 103% and the viability, T/C [11] was 99.4%. It also gave a viability, T/C [12] of 84.1%, a viability, T/C (second compound 0.0316 µM, first compound 0.316 µM) of 62.5% and a viability, T/C (second compound 0.0316 µM, first compound 1 µM) of 46.7%. For the same compound, the viability, T/C [13] was 102%, the viability, T/C [14] was 101% and the viability, T/C [15] was 98.6%. For the same compound, the viability, T/C [16] was 82.3%, the viability, T/C (second compound 0.1 µM, first compound 0.316 µM) was 63.8% and the viability, T/C (second compound 0.1 µM, first compound 1 µM) was 44%. It also gave a viability, T/C [17] of 107%, a viability, T/C [18] of 117% and a viability, T/C [19] of 93.6%. The viability, T/C [20] was 86.2%, the viability, T/C (second compound 0.316 µM, first compound 0.316 µM) was 70% and the viability, T/C (second compound 0.316 µM, first compound 1 µM) was 56.4%. The viability, T/C [21] was 105%, the viability, T/C [22] was 109% and the viability, T/C [23] was 96.6%. It also gave a viability, T/C [24] of 86.2%, a viability, T/C (second compound 1 µM, first compound 0.316 µM) of 67.5% and a viability, T/C (second compound 1 µM, first compound 1 µM) of 48.2%.
In the case of `NC1CCC(NC2CC2c2ccccc2)CC1` (centres undefined) + CNC(C)C(=O)NC1CN(S(=O)(=O)c2cccc(S(=O)(=O)N3CCC4CCC(C(=O)NC(c5ccccc5)c5ccccc5)N4C(=O)C(NC(=O)C(C)NC)C3)c2)CCC2CCC(C(=O)NC(c3ccccc3)c3ccccc3)N2C1=O, the IC50 (second compound 0.00316 µM) is reported as greater than 0.1 µM, the IC50 (second compound 0.01 µM) is reported as greater than 0.1 µM and the IC50 (second compound 0.0316 µM) is reported as greater than 0.1 µM. The IC50 (second compound 0.1 µM) was greater than 0.1 µM, the IC50 (second compound 0.316 µM) was greater than 0.1 µM and the IC50 (second compound 1 µM) was greater than 0.1 µM. For the same compound, the viability, T/C (second compound 0.00316 µM, first compound 0.000316 µM) was 119%, the viability, T/C (second compound 0.00316 µM, first compound 0.001 µM) was 118% and the viability, T/C [1] was 132%. For the same compound, the viability, T/C [2] was 133%, the viability, T/C [3] was 131% and the viability, T/C [4] was 119%. The viability, T/C (second compound 0.01 µM, first compound 0.000316 µM) was 119%, the viability, T/C (second compound 0.01 µM, first compound 0.001 µM) was 121% and the viability, T/C [5] was 121%. For the same compound, the viability, T/C [6] was 124%, the viability, T/C [7] was 128% and the viability, T/C [8] was 140%. For the same compound, the viability, T/C (second compound 0.0316 µM, first compound 0.000316 µM) was 116%, the viability, T/C (second compound 0.0316 µM, first compound 0.001 µM) was 118% and the viability, T/C [9] was 138%. The viability, T/C [10] was 125%, the viability, T/C [11] was 127% and the viability, T/C [12] was 127%. For the same compound, the viability, T/C (second compound 0.1 µM, first compound 0.000316 µM) was 121%, the viability, T/C (second compound 0.1 µM, first compound 0.001 µM) was 128% and the viability, T/C [13] was 128%. The viability, T/C [14] was 128%, the viability, T/C [15] was 128% and the viability, T/C [16] was 121%. For the same compound, the viability, T/C (second compound 0.316 µM, first compound 0.000316 µM) was 131%, the viability, T/C (second compound 0.316 µM, first compound 0.001 µM) was 113% and the viability, T/C [17] was 118%. The viability, T/C [18] was 130%, the viability, T/C [19] was 143% and the viability, T/C [20] was 124%. For the same compound, the viability, T/C (second compound 1 µM, first compound 0.000316 µM) was 122%, the viability, T/C (second compound 1 µM, first compound 0.001 µM) was 129% and the viability, T/C [21] was 136%. For the same compound, the viability, T/C [22] was 131%, the viability, T/C [23] was 137% and the viability, T/C [24] was 143%.
